Source: US11198696B2, “Substituted xanthines as inhibitors of transient receptor potential cation channel subfamily c, member 5 activity” (Boehringer Ingelheim International GmbH, priority 2018, dated 2021)

Biological target: T1, TRPC5 (Homo sapiens, UniProt Q9UL62)
T1 construct: expressed in transfected cells; host or cells: HEK293 TREx cells, inducible TRPC5 expression, induced 20-48 hours
T1 sequence (Q9UL62 1-973): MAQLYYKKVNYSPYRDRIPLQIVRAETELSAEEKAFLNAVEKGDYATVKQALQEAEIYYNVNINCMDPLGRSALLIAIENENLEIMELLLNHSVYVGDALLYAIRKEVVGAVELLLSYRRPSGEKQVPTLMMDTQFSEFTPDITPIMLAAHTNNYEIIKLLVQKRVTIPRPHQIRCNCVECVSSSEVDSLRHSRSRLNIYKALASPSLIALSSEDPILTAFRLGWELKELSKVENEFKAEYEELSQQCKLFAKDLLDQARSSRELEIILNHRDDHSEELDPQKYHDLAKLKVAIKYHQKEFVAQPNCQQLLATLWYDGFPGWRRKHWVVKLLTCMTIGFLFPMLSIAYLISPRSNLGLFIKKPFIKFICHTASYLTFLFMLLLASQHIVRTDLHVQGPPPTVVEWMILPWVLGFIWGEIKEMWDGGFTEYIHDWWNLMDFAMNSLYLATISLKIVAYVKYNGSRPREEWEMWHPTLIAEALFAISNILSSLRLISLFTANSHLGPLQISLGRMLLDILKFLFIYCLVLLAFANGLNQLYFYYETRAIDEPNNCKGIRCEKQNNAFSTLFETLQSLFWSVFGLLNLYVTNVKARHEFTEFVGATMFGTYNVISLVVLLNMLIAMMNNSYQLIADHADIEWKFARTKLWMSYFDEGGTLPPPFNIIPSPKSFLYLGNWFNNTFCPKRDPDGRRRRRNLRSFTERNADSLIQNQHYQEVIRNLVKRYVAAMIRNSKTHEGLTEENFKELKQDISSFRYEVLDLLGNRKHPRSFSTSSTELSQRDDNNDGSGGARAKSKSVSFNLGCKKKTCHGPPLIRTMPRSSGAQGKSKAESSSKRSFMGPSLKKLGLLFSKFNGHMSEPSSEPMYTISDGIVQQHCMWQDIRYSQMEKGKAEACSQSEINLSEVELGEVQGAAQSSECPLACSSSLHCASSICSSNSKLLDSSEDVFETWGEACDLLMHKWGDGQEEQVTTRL
Assay: Assay A: Determination of TRPC5-Inhibition (whole-cell patch clamp)
Format: cell-based
Conditions: LaCl3-activated current
Description: Assay A: Determination of TRPC5-Inhibition
Patch clamp experiments permit the detection of currents through the TRPC5 channel in a cell line. In normal whole-cell patch clamp recordings, a glass electrode is brought into contact with a single cell and a high-resistance (gigaohm) seal is established with the cell membrane. The membrane is then ruptured to achieve the whole-cell configuration, permitting control of the voltage of the cell membrane and measurement of currents flowing across the membrane using the amplifier attached to the electrode and resulting in the replacement of cytoplasm with the pipette solution. A perfusion system permits control of the extracellular solution, including the addition of blockers and activators of the current. The current can be activated by including 1.4 μM free Ca2+ in the pipette (intracellular) solution, and 80 μM LaCl3 in the extracellular solution.
TRPC5 cells were induced 20-48 hours, removed from growth plates, and replated at low density (to attain good single-cell physical separation) on glass coverslips for measurement. In some cases, cells were grown in low density overnight on glass coverslips. Patch clamp recordings were made in the whole-cell mode with a holding potential of −40 mV. Every 5 seconds, a voltage ramp was applied from −120 to +100 mV, 400 ms in duration. Currents elicited were quantified at −80 mV and +80 mV. The internal solution consisted of 140 mM cesium aspartate, 10 mM HEDTA, 2 mM CaCl2, 2.27 mM MgCl2 and 10 mM HEPES, pH 7.2, with 1,400 nM calculated free Ca2+. The external solution consisted of 150 mM NaCl, 4.5 mM 15 KCl, 1 mM MgCl2, 2 mM CaCl2, 10 mM HEPES, 10 mM glucose, 1 mM EGTA, pH 7.4. Upon addition of LaCl3, TRPC5 current was induced only in TRPC5-expressing cells and not in parental HEK293 TREx cells. Removal of the LaCh stimulus causes most of the current to go away. Potential blockers were tested for ability to block both inward and outward currents in the continued presence of LaCl3.
IC50 of a compound of the invention was estimated by testing the compound 500 nM. […] Compounds blocking 50% or more at 500 nM are retested at multiple concentrations, and the % block is fitted by standard equations to determine IC50 accurately, using a 5/6 point concentration-response experiment.

[1] = compounds of the present invention, TRPC5-expressing HEK293 TREx cells
[2] = closest prior art compounds of WO2014/143799, TRPC5-expressing HEK293 TREx cells

SMILES | IC50 [1] [nM] | IC50 [2] [nM]
CCn1c(=O)n(CCCO)c(=O)c2c1nc(-c1ccc(OC3CCC3)nc1)n2Cc1cc(F)cc(F)c1 [Example 58] | 3.67 | –
CCn1c(=O)n(CCCO)c(=O)c2c1nc(-c1ccc(OC3CCC3)nc1)n2Cc1ccc(F)c(F)c1 [Example 56] | 2.64 | –
CCn1c(=O)n(CCCO)c(=O)c2c1nc(-c1ccc(OC3CCC3)nc1)n2Cc1ccc(C(F)(F)F)cc1 [Example 54] | 1.6 | –
COc1ccc(-c2nc3c(c(=O)n(CCCO)c(=O)n3C)n2Cc2ccc(F)cc2)cc1 [Example 465 in WO2014/143799, reference compound] | – | 52
COc1ccc(-c2nc3c(c(=O)n(CCCO)c(=O)n3C)n2Cc2ccccc2)cc1 [Example 441 in WO2014/143799, reference compound] | – | 324
CCn1c(=O)n(CCCO)c(=O)c2c1nc(-c1ccc(OC3C[C@@H]4C[C@@H]4C3)nc1C)n2Cc1ccc(F)cc1 (stereo partly drawn) [Example 59] | 1.73 | –
CCn1c(=O)n(CCCO)c(=O)c2c1nc(-c1ccc(OC3CCC3)nc1F)n2Cc1ccc(F)cc1 [Example 62] | 3.37 | –

More lines, now with the values ahead:

IC50 [1] [nM] | IC50 [2] [nM] | SMILES
0.281 | – | CCn1c(=O)n(CCCO)c(=O)c2c1nc(-c1ccc(OC3CC(C)(C)C3)nc1C)n2Cc1ccc(F)cc1 [Example 24]
0.485 | – | CCn1c(=O)n(CCCO)c(=O)c2c1nc(-c1ccc(OC3CC(C)C3)nc1C)n2Cc1ccccc1 (stereo not drawn) [Example 34]
0.19 | – | Cc1nc(OC2CCC2)ccc1-c1nc2c(c(=O)n(CCCO)c(=O)n2C2CCC2)n1Cc1ccccc1 [Example 16]
0.713 | – | CCC(C)n1c(=O)n(CCCO)c(=O)c2c1nc(-c1ccc(OC3CCC3)nc1C)n2Cc1ccccc1 (stereo not drawn) [Example 42]
0.246 | – | CCC(C)n1c(=O)n(CCCO)c(=O)c2c1nc(-c1ccc(OC3CC(C)C3)nc1C)n2Cc1ccccc1 (stereo not drawn) [Example 20]
0.917 | – | CCn1c(=O)n(CCCO)c(=O)c2c1nc(-c1ccc(O[C@H]3C[C@H](C)C3)nc1C)n2Cc1ccccc1 [Example 28]
< 0.1 | – | Cc1nc(OC2CC(C)C2)ccc1-c1nc2c(c(=O)n(CCCO)c(=O)n2C(C)C)n1Cc1ccc(F)cc1 (stereo not drawn) [Example 5]
< 0.1 | – | Cc1nc(OC2CCCC2)ccc1-c1nc2c(c(=O)n(CCCO)c(=O)n2C(C)C)n1Cc1ccc(F)cc1 [Example 4]
